Experimental data taken from PubChem BioAssay (NCI).
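Five compound concentrations were applied to cells in 96-well plates for 48 hours; endpoints were derived by simple linear interpolation of the resulting dose-response curve. GI50 is the concentration that inhibits growth by half. TGI: concentration producing complete growth inhibition.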

What was measured:
Assay in all cases: NCI tumour cell line growth inhibition, 48 h
[1] = test system: CAKI-1 renal
[2] = test system: TK-10 renal
[3] = test system: CCRF-CEM leukemia
[4] = test system: A498 renal
[5] = test system: SF-539 CNS
[6] = test system: MOLT-4 leukemia
[7] = test system: HT29 colon
[8] = test system: OVCAR-3 ovarian
[9] = test system: NCI-H460 lung
[10] = test system: 786-0 renal
[11] = test system: RPMI-8226 leukemia
[12] = test system: LOX IMVI melanoma
[13] = test system: MALME-3M melanoma
[14] = test system: U251 CNS
[15] = test system: SNB-19 CNS
[16] = test system: HOP-92 NSCLC

Row | Compound | TGI [1] [µM] | TGI [2] [µM] | TGI [3] [µM] | TGI [4] [µM] | TGI [5] [µM] | TGI [6] [µM] | TGI [7] [µM] | TGI [8] [µM] | TGI [9] [µM] | TGI [10] [µM] | TGI [11] [µM] | TGI [12] [µM] | TGI [13] [µM] | TGI [14] [µM] | TGI [15] [µM] | TGI [16] [µM] | GI50 [3] [µM]
1 | CN(Cc1cnc2nc(N)nc(N)c2n1)c1ccc(C(=O)NC2CCCCC2)cc1 | > 100 | > 100 | > 100 | 77.3 | 29.7 | > 100 | 31 | > 100 | 63.5 | > 100 | > 100 | > 100 | > 100 | 32.5 | 38.7 |  | 
2 | COC(=O)[C@H]1[C@H](OC(=O)[C@@H](OC)c2ccccc2)ON2CC[C@@H](OC(=O)c3ccccc3)[C@H]12 | > 100 | > 100 | > 100 | 23.1 |  | > 100 | > 100 |  | > 100 | > 100 | > 100 | > 100 | > 100 | > 100 | > 100 | 66 | 
3 | O=C(CC(C(=O)c1ccsc1)c1cccs1)c1ccsc1 (centres undefined) | > 100 | > 100 | > 100 | > 100 |  | > 100 | > 100 |  | > 100 | > 100 | > 100 | > 100 | > 100 | > 100 | > 100 |  | 
4 | CCOC(=O)C(NC(=O)Nc1ccccc1F)(OC)C(F)(F)F (centres undefined) | > 100 | > 100 | > 100 | > 100 | > 100 | > 100 | > 100 |  |  | > 100 | > 100 | > 100 |  | > 100 | > 100 |  | 
5 | c1ccc2c(c1)SCCCSCCCS2 |  | > 100 | > 100 |  | > 100 | > 100 |  | > 100 | > 100 | > 100 |  | > 100 |  | > 100 | > 100 | > 100 | 
6 | COc1ccc2[nH]c3c(c2c1)CCc1ccccc1-3 | > 100 | > 100 | > 100 |  | 32.1 | > 100 | > 100 | > 100 | > 100 | > 100 |  | > 100 | > 100 | > 100 | > 100 | > 100 | 
7 | Nc1nc(SCC(=O)c2ccccc2)nc2nc3c(c(-c4ccccc4)c12)CCCC3 | > 100 | > 100 | > 100 | 42.9 | > 100 | > 100 | > 100 | 94.5 | > 100 | 56.1 | > 100 | 61.7 | > 100 | > 100 | > 100 |  | 
8 | Cc1ccc(NC(=O)c2cc(S(=O)(=O)N3CCNNC3=O)c(S)cc2Cl)cc1 | > 100 | > 100 | > 100 |  | > 100 | > 100 |  | > 100 | > 100 | > 100 | > 100 | > 100 | > 100 | > 100 | > 100 | > 100 | 
9 | CCOP(=O)(OCC)OC1CC(n2cnc3c(N(CC)CC)ncnc32)OC1CO[Si](C)(C)C(C)(C)C (centres undefined) | 31.5 | 33 | 41.2 |  | 33.8 | 30.7 | 35 | 44.9 | 32 | 30 | > 100 | 33.4 | 41.4 | 28.7 | 33.7 |  | 
10 | CC(=O)Nc1ccccc1S(=O)(=O)c1c(-c2c(C)c(Cl)c(C)c(Cl)c2C)noc1C | 79.3 | 73.7 | 71.2 | > 100 |  | > 100 | > 100 | > 100 | > 100 | 40.6 | > 100 |  | > 100 | 95.5 | 64.5 |  | 
11 | O=C(O)C1CCCCN1CCc1c[nH]c2ccccc12 (centres undefined) | > 100 | > 100 | > 100 |  | > 100 | > 100 | > 100 | > 100 | > 100 | > 100 | > 100 | > 100 | > 100 | > 100 | > 100 | > 100 | 
12 | COc1ccc(/C=N/Nc2nc3ccccc3c(=O)n2-c2ccccc2)cc1 | > 100 | > 100 | > 100 | > 100 | > 100 | > 100 | > 100 | > 100 | > 100 | > 100 |  | > 100 | > 100 | > 100 | > 100 |  | 
13 | COc1ccc(-c2c(C(=O)Nc3ccccc3)c(-c3ccccc3)n(C3OC(CO)C(O)C(O)C3O)c(=S)c2C#N)cc1 (centres undefined) | > 100 |  | > 100 | > 100 |  | > 100 | > 100 | > 100 | > 100 | > 100 | > 100 | > 100 | > 100 | > 100 | > 100 | > 100 | 
14 | ClCc1nc2cc(Cl)ccc2o1 | 3.24 | 7.9 | > 25.7 |  | 17.8 | > 100 | 6.5 | 4.07 | 31.6 | 3.34 | 4.07 | 6.74 | 27.3 | 9.13 | 21.5 | 3.87 | 
15 | CSC(=S)Nc1cc(C)ccn1 | > 100 | > 100 | > 100 |  | > 100 | > 100 | > 100 | > 100 | > 100 | > 100 | > 100 | > 100 | > 100 | > 100 | > 100 | > 100 | 
16 | COc1ccc(OC)c(CC(=O)c2ccc(O)c(C(=O)NCCc3ccc(F)cc3)c2)c1 | 14.5 | 45.8 | 6.65 | 47 |  | 17.4 | 30.5 | 3.17 | 34 | 24.5 | 22.9 | 27 | 6.9 | 13.7 | 52.5 | 41.4 | 2.4
